{"source": "paper PMC10708540", "about": "“Determination and Kinetic Characterization of a New Potential Inhibitor for AmsI Protein Tyrosine Phosphatase from the Apple Pathogen Erwinia amylovora” (Molecules, 2023)", "key": {"[1]": {"test_system": "O=[N+]([O-])c1ccc(OP(=O)(O)O)cc1", "experiment": "purified protein"}, "[2]": {"target": "T1, EaAmsI (AmsI, Low Molecular Weight Protein Tyrosine Phosphatase) (Erwinia amylovora, UniProt Q46630)", "T1 construct": "recombinant EaAmsI (gene from strain Ea273, pETM-11 vector)", "T1 sequence (Q46630 whole entry)": "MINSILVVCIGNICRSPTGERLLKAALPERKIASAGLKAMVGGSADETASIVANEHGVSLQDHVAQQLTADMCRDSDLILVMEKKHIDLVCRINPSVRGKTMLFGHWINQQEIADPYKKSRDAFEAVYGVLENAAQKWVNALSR", "experiment": "pNPP hydrolysis at […] nm, Michaelis-Menten global fit with competitive inhibition model", "assay_type": "biochemical"}, "[3]": {"target": "T1, EaAmsI (AmsI, Low Molecular Weight Protein Tyrosine Phosphatase)", "experiment": "pNPP hydrolysis, dose-response IC50", "assay_type": "biochemical"}}}
{"compound": "EaAmsI (AmsI, Low Molecular Weight Protein Tyrosine Phosphatase) (Erwinia amylovora)", "values": [{"measurement": "Km", "setting": "[1]", "result": "15.1 ± 1.3", "unit": "mM"}]}
{"compound": "CCCCCCCO[C@@H]1O[C@H](CO)[C@@H](O)[C@H](O)[C@H]1O", "note": "[N7G, (2R,3R,4S,5S,6R)-2-(heptyloxy)-6-(hydroxymethyl)oxane-3,4,5-triol]", "values": [{"measurement": "Ki", "setting": "[2]", "result": "0.0078 ± 0.0006", "unit": "mM"}]}
{"compound": "CCCCCCCCO[C@@H]1O[C@H](CO)[C@@H](O)[C@H](O)[C@H]1O", "note": "[N8G, (2R,3S,4S,5R,6R)-2-(hydroxymethyl)-6-(octyloxy)oxane-3,4,5-triol]", "values": [{"measurement": "IC50", "setting": "[3]", "result": "9.5 ± 1.3", "unit": "mM"}]}
